# Measured values: patent US11666589B2, “Pivarubicin and benzarubicin compositions” (Paradox Pharmaceuticals, Inc., priority 2020, dated 2023)
# Where two headings read alike, the source gives them in different places.
# Columns and labels:
# SUM159 cells = test: MTT cytotoxicity, TNBC monolayer SUM159; type: cell-based; details: SUM159, 48 h
# Protocol: Based upon the ability of pivarubicin to circumvent multiple mechanisms of resistance against doxorubicin, we then examined the efficacy of pivarubicin against TNBC in comparison to doxorubicin, using the following procedure, using two basal TNBC cell lines. MDA-MB-231 cells and SUM-159 cells were maintained under adherent monolayer growth conditions. Upon reaching 50% confluency, cells were treated for 48 h with the dose range of doxorubicin or pivarubicin as indicated in FIGS. 6A and 6B. Cell viability was corrected for death observed in vehicle-only-treated cells (<1% ethanol final well concentration).
# MDA-MB-231 cells = test: Secondary tumorsphere formation; type: cell-based, human; details: 2.5 μM, up to 7 days
# Protocol: either vehicle, pivarubicin (NV), or doxorubicin (DOX), and cultured for up to 7 days prior to obtaining the digital images shown in FIG. 6C (vehicle only), FIG. 6D (2.5 uM PIV), and FIG. 6E (2.5 uM DOX). The bar graph in FIG. 6F represents the mean number of tumorspheres greater than […] in diameter/well (n>3).
# [1] = Maximum tolerated dose in non-tumor-bearing mice; type: in vivo, female NSG mice
# Protocol: The MTD for pivarubicin was 26.6 mg/kg, producing a reversible mean 20% weight loss after two doses, with a third dose producing an irreversible mean weight loss >20%.
# [2] = Cardiotoxicity assessment (Bertazzoli Test), non-tumor-bearing mice; type: in vivo, female NSG mice; details: for hearts with Severity 0 / hearts with Severity 0.5 / hearts with Severity 1.0 / hearts with Total Score 0 / hearts with Total Score 0.5 / hearts with Total Score 1.0: Non-Tumor-Bearing; for hearts with Severity 0 / hearts with Severity 0.5 / hearts with Severity 1.0: 3 i.p. doses at 2-week intervals; for hearts with Total Score 0 / hearts with Total Score 0.5 / hearts with Total Score 1.0: severity×extension
# Protocol: Drug-mediated cardiotoxicity was assessed in both non-tumor-bearing female NSG mice administered three doses (i.p. every two weeks) of the MTD of doxorubicin, pivarubicin or the equivalent volume of solvent only and in hearts excised from tumor-bearing mice treated as described in Results section. Body weights were monitored every three days. Two weeks after final dose, mice were sacrificed, and hearts were excised immediately. Intact ventricular myocardia were fixed for a minimum of 24 h in 10% formalin phosphate buffered to pH 7.0 and then carefully sectioned into 2 to 3-mm thick slices before being dehydrated in graded ethanol and cleared in xylene prior to embedding in paraffin at 58° C. Sections (4-μm thick) were mounted on glass slides, deparaffinized in xylene, and stained in the routine fashion with Mayer's hematoxylin and eosin. Slide labels were blinded to evaluator. Myocardial lesions were evaluated by routine light microscopy and scored with regard to the severity and extent of damage:
# Degree of severity (S)—0, no evidence of histological changes; 1, sarcoplasmic microvacuolization and/or inclusions (interstitial or cellular edema); 2, as in 1 plus sarcoplasmic macrovacuolization or atrophia, necrosis, fibrosis, endocardial lesions, and thrombi.
# Degree of extension (E)—0, no lesions; 0.5, less than 10 single altered myocytes on the whole-heart section; 1, scattered single altered myocytes; 2, scattered small groups of altered myocytes; 3, spread small groups of altered myocytes; 4, confluent groups of altered myocytes; 5, most of cells damaged.
# Total cardiotoxicity score/animal=S×E and mean total score (MTS) for each treatment group was MTS=(S×E)/number of animals.
# Given the limitation of doxorubicin in the treatment of tumors due to irreversible cardiotoxicity due to the total cumulative dose of drug, it was next determined whether pivarubicin produced evidence of cardiotoxic damage at the total dose of drug administered to NSG mice that produced tumor growth inhibition. Histological evidence of ventricular damage in hearts of drug- or vehicle-treated NSG mice were assessed using the Bertazzoli Test, originally designed to assess doxorubicin-induced cardiomyocyte damage. Analyses were performed on hearts from two independent experiments: 1) hearts that were excised at dosing endpoint from tumor-bearing NSG mice receiving 2 i.p. doses of pivarubicin at 16.5 mg/kg, doxorubicin at 1.4 mg/kg then 1.6 mg/kg and an equivalent volume of vehicle alone and 2) non-tumor-bearing female NSG mice receiving 3 i.p. doses of pivarubicin at 16.5 mg/kg, doxorubicin at 1.4 mg/kg then 1.6 mg/kg×2 and an equivalent volume of vehicle alone at 2-week intervals.
# Non-tumor-bearing female NSG mice at 9 weeks old were treated with either 16.5 mg/kg pivarubicin (PIV), 1.4 mg/kg (1×) and 1.6 mg/kg (2×) doxorubicin and equivalent volumes of vehicle i.p. at 2-week intervals. Tumor-bearing female NSG mouse treatment was as described for the “Cardiotoxicity Assessment method” method. At endpoint, hearts were excised and prepared for histological analysis as described above. Severity and severity×extension (total score) are defined in Materials and Methods.
Compound,"IC50 (SUM159 cells; MTT, read-out: IC50)","IC90 (SUM159 cells; MTT, read-out: IC90)",inhibition of secondary tumorsphere formation (MDA-MB-231 cells),"reversible mean weight loss ([1]; 26.6 mg/kg, after two doses)","irreversible mean weight loss ([1]; 26.6 mg/kg, third dose)",hearts with Severity 0 [2],hearts with Severity 0.5 [2],hearts with Severity 1.0 [2],hearts with Total Score 0 [2],hearts with Total Score 0.5 [2],hearts with Total Score 1.0 [2],"histologic damage to ventricular cardiomyocytes ([2]; non-tumor-bearing mice (n=9), cumulative tumor growth inhibitory dose)",IC50 (SUM159 cells),IC90 (SUM159 cells),reversible mean weight loss ([1]; 1.4 mg/kg after 3 prior escalating doses),"irreversible mean weight loss ([1]; 1.8 mg/kg, independent dosing experiment)",MTD ([1]; i.p. once every 2 weeks)
"COc1cccc2c1C(=O)c1c(O)c3c(c(O)c1C2=O)C[C@@](O)(C(=O)COC(=O)C(C)(C)C)C[C@@H]3O[C@H]1C[C@H](NCc2ccccc2)[C@H](O)[C@H](C)O1 [Pivarubicin, N-Benzyladriamycin-14-pivalate]",1500 nM,1700 nM,complete inhibition,20%,> 20%,9/9,0/9,0/9,9/9,0/9,0/9,no evidence of histologic damage,,,,,
"COc1cccc2c1C(=O)c1c(O)c3c(c(O)c1C2=O)C[C@@](O)(C(=O)CO)C[C@@H]3O[C@H]1C[C@H](N)[C@H](O)[C@H](C)O1 [Doxorubicin, reference compound]",,,partial inhibition,,,5/9,0/9,4/9,7/9,2/9,0/9,,4000 nM,> 20000 nM,22%,> 25%,1.4 mg/kg
